Molecules are shown by their SMILES. “Also recorded” adds a separate entry of the source.

For one experiment, the system named is 3T3-L1 adipocytes. The settings on record: by reducing GLUT4 activity; cited from earlier work.
For another experiment, the system named is DIO C57BL/6 mice. The experiment can be described thus: Experiment 3: four weeks treatment of male DIO C57BL/6 mice on high fat diet (body weight, body composition, glucose). The experiment is classed as in vivo. The settings on record: PO, BID, 4 weeks. As to the method: Methods: Male C57BL/6 mice, from Jackson Laboratories, group housed, 18-19 weeks old, on high fat diet (HFD, D12331 rodent diet, 58 kcal % from fat and sucrose. Research Diets, Inc., New Brunswick, N.J.) started at 4-5 weeks old. A parallel group of mice on normal diet (ND, Purina 5001) was served as diet control. During the last 4 weeks of diet period, mice on HFD were treated with vehicle (0.5% tragacanth in 0.03N HCl), Compound 2 administered at 3, 10, and 30 mg/kg, BID, PO (10 ml/kg). Mice on ND were treated with vehicle. Mouse number in each group was 8-10. Body weight (BW), body composition, fasting blood glucose, postprandial blood glucose and insulin were measured. […] Epididymal fat pad was collected to determine PPARγ and GLUT4 gene expression.

Another experiment deals with DIO AKR mice. Put plainly: Experiment 2: two week treatment of 24-25 weeks old male DIO AKR mice on high fat diet. It is filed as in vivo. The settings on record: 10 & 30 mg/kg, PO, BID. On the procedure: Compound 2 was administered for a two week treatment in 24-25 weeks old male DIO AKR mice (older). Methods: Male AKR mice, from Jackson Laboratories, group housed, 24-25 weeks old, on high fat diet (HFD, D12331 rodent diet, 58 kcal % from fat and sucrose. Research Diets, Inc., New Brunswick, N.J.) started at 4-5 weeks old. A parallel group of mice on normal diet (ND, Purina 5001) was served as diet control. During the last 2 weeks of diet period, mice on HFD were treated with vehicle (0.5% tragacanth in 0.03N HCl), Compound 2 administered at 10, and 30 mg/kg, BID, PO (10 ml/kg). Mice on ND were treated with vehicle. Mouse number in each group was 7-10. Body weight (BW), body composition, postprandial blood glucose, and fasting serum insulin were measured.

For experiment [1], the system named is diet-induced obese (DIO) AKR mice. The experiment can be described thus: Experiment 1: four weeks treatment of 18-19 weeks old male DIO AKR mice on high fat diet (body weight, body composition, glucose, ITT). The experiment is classed as in vivo. On the procedure:
Compound 2 was administered for four weeks treatment in 18-19 weeks old male, diet-induced obese (DIO) AKR mice. Methods: Male AKR mice, from Jackson Laboratories, group housed, 18-19 weeks old, on high fat diet (HFD, D12331 rodent diet, 58 kcal % from fat and sucrose. Research Diets, Inc., New Brunswick, N.J.) started at 4-5 weeks old. A parallel group of mice on normal diet (ND, Purina 5001) was served as diet control. During the last 4 weeks of diet period, mice on HFD were treated with vehicle (0.5% tragacanth in 0.03N HCl), Compound 2 was administered at 3 mg/kg, and 10 mg/kg, and water (control for vehicle), twice daily (BID), orally (PO) at 10 ml/kg. Mice on normal diet (ND) were treated with vehicle. Mouse number in each group was 7-10. Body weight (BW) was monitored once a week. Body composition was monitored every other week by using EchoMRI™ Whole Body Composition Analyzer (Echo Medical Systems, Houston, Tex.). Fasting blood glucose was measured at 2 weeks of treatment. Postprandial blood glucose was measured at before and end of treatment. Fasting serum insulin was measured at dosing 2 weeks via orbital bleeding. Serum IL-6 was measured at the end of treatment under fasting condition. Insulin tolerance test (ITT) was also performed at end of the diet period.

For the molecule `C[S+]([O-])c1ccc(-c2nc(-c3ccc(F)cc3)c(-c3ccncc3)[nH]2)cc1` (stereo not shown) [Compound 1, 4-(4-Fluorophenyl)-2-(4-methylsulfinylphenyl)-5-(4-pyridyl)imidazole], in the experiment on 3T3-L1 adipocytes, the insulin-induced glucose uptake entry was “reduced insulin-induced glucose uptake”.

On to `COc1nccc(-c2c(-c3ccc(F)cc3)ncn2[C@H]2CC[C@H](O)CC2)n1` [Compound 2, trans-1-(4-hydroxycyclohexyl)-4-(4-fluorophenyl)-5-[(2-methoxy)pyrimidin-4-yl]imidazole], for which the blood glucose entry in the experiment on DIO C57BL/6 mice was “no effect; also recorded: did not have any significant effect”; in the experiment on DIO AKR mice (2 weeks), “no effect; also recorded: did not have any significant effect”; in experiment [1] (3 & 10 mg/kg, PO, BID, 4 weeks), “no effect; also recorded: did not have any significant effect”. Besides, the lean mass result is listed as “no effect” in the experiment with DIO C57BL/6 mice and “no effect” in experiment [1] (3 & 10 mg/kg, PO, BID, 4 weeks). Moreover, the “reduction in body weight (BW)” value in the experiment with DIO AKR mice (last 2 weeks of 20 weeks on HFD, p<0.05) is given as 4-9%; in experiment [1] (3 & 10 mg/kg, PO, BID, last 4 weeks of 14 weeks on HFD, p<0.05), 4-9%. For the same molecule, the “time at which the effect on BW and fat mass appeared” value with DIO AKR mice (more pronounced over the 2 weeks) is recorded as 4 days. Moreover, in experiment [1] (end of diet period, insulin i.p. 0.75 U/kg), the “response to an insulin tolerance test (ITT)” value was “did not have any significant effect”.

The record behind these values is US20090074676A1, “Inhibition of p38 MAPK For Treatment Of Obesity” (SMITHKLINE BEECHAM CORPORATION, priority 2005, published 2009).
